Results from ChEMBL document CHEMBL1201862, “PubChem BioAssay data set” (2004).
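Interpolation was linear, between the two tested concentrations surrounding the appropriate level; five concentrations were tested over 48 hours in 96-well plates. GI50: concentration for 50% inhibition of growth.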 Active and inactive are the calls of the source. Rule as the data show it: active = GI50 up to about 1.1 µM and inactive = higher.

Key:
Test in all cases: growth of human tumour cells (NCI), 48 h
[1] = system: SR
[2] = system: OVCAR-5
[3] = system: NCI-H460
[4] = system: LOX IMVI
[5] = system: HCT-116
[6] = system: HL-60
[7] = system: PC-3
[8] = system: SK-OV-3
[9] = system: SW-620
[10] = system: SK-MEL-28
[11] = system: NCI-H23
[12] = system: MDA-N
[13] = system: OVCAR-4
[14] = system: HCC 2998
[15] = system: HOP-92
[16] = system: SF-295
[17] = system: Malme-3M
[18] = system: ACHN
[19] = system: UO-31
[20] = system: UACC-257
[21] = system: SF-268
[22] = system: HCT-15
[23] = system: CCRF-CEM
[24] = system: UACC-62
[25] = system: M14
[26] = system: HT-29
[27] = system: SNB-19
[28] = system: OVCAR-3
[29] = system: BT-549
[30] = system: SNB-75
[31] = system: A549
[32] = system: SN12C
[33] = system: KM12
[34] = system: MDA-MB-435
[35] = system: SF-539
[36] = system: EKVX
[37] = system: NCI/ADR-RES
[38] = system: K562
[39] = system: RPMI-8226
[40] = system: IGROV-1
[41] = system: HOP-62
[42] = system: MCF7
[43] = system: CAKI-1
[44] = system: NCI-H522
[45] = system: MOLT-4
[46] = system: SK-MEL-2
[47] = system: 786-0
[48] = system: NCI-H226
[49] = system: COLO 205
[50] = system: SK-MEL-5
[51] = system: DU-145
[52] = system: OVCAR-8
[53] = system: TK-10
[54] = system: RXF 393
[55] = system: Hs-578T
[56] = system: U-251
[57] = system: MDA-MB-231
[58] = system: A498

Measured: GI50

COc1cc(S(=O)(=O)Nc2ccc(-c3csc(N4C(=O)CSC4c4ccccc4O)n3)cc2)ccc1Cl (centres undefined)
inactive: [1] 54.8 µM | [2] 79.6 µM | [3] 21.4 µM | [4] 34.4 µM | [5] 32.8 µM | [6] 22.2 µM | [7] 38.1 µM | [8] > 100 µM | [9] 35.2 µM | [10] 24.5 µM | [11] 31.5 µM | [12] 32.9 µM | [13] 52.2 µM | [14] 21.6 µM | [15] 29.2 µM | [16] 72.6 µM | [17] 42.5 µM | [18] 32.4 µM | [19] 51.3 µM | [20] 27.7 µM | [21] 44.8 µM | [23] 23.3 µM | [24] 29.4 µM | [25] 64.3 µM | [26] 92 µM | [27] 57.9 µM | [28] 84.7 µM | [29] 31 µM | [30] 31.9 µM | [31] 61.8 µM | [32] 92 µM | [33] 38.4 µM | [34] 40.4 µM | [35] 34.8 µM | [36] 25.4 µM | [37] > 100 µM | [38] 34.8 µM | [39] 60.5 µM | [40] 46.3 µM | [41] 85.7 µM | [42] 30.9 µM | [43] > 100 µM | [44] 24.3 µM | [45] 88.3 µM | [46] 44.6 µM | [47] 69.2 µM | [48] 32.9 µM | [49] 24.5 µM | [50] 58.7 µM | [51] 35.4 µM | [52] 55.1 µM
58.5 µM: [22]

CCN=C=NCCCN(C)C
inactive: [1] > 100 µM | [2] > 100 µM | [3] > 100 µM | [4] > 100 µM | [5] > 100 µM | [6] > 100 µM | [7] > 100 µM | [8] > 100 µM | [9] > 100 µM | [10] > 100 µM | [53] > 100 µM | [11] > 100 µM | [12] > 100 µM | [13] > 100 µM | [54] > 100 µM | [15] > 100 µM | [16] > 100 µM | [17] > 100 µM | [18] > 100 µM | [19] > 100 µM | [20] > 100 µM | [21] > 100 µM | [55] > 100 µM | [56] > 100 µM | [23] > 100 µM | [57] > 100 µM | [24] > 100 µM | [25] > 100 µM | [26] > 100 µM | [27] > 100 µM | [28] > 100 µM | [29] > 100 µM | [30] > 100 µM | [31] > 100 µM | [32] > 100 µM | [33] > 100 µM | [34] > 100 µM | [35] > 100 µM | [36] > 100 µM | [37] > 100 µM | [38] > 100 µM | [58] > 100 µM | [39] > 100 µM | [40] > 100 µM | [41] > 100 µM | [42] > 100 µM | [43] > 100 µM | [44] > 100 µM | [45] > 100 µM | [46] > 100 µM | [47] > 100 µM | [48] > 100 µM | [49] > 100 µM | [50] > 100 µM | [51] > 100 µM | [52] > 100 µM
> 100 µM: [22]
